These results are taken from patent US8058510B2, “Method and means to modulate programmed cell death in eukaryotic cells” (Bayer Bioscience N.V., priority 1998, dated 2011).

Entries after “also recorded” stand apart in the source; their conditions may differ.

For experiment [1], the system named is differentiating cells of Zinnia or of Helianthus tuberosum. The following applies: literature; cited from earlier work.
Experiment [2] deals with Arabidopsis shoots (C24; Columbia). Description: Fitness assay Arabidopsis (TTC-assay). The experiment is classed as in vivo. Conditions: 2 mM niacinamide in incubation medium, about 20 hours; lines C24 and Columbia.
Experiment [3] concerns the target T1, APP (Arabidopsis thaliana, UniProt Q11207). Description: In situ detection of poly(ADP-ribose) polymer with 10H monoclonal antibody in yeast spheroplasts expressing APP. The experiment is classed as cell-based. Also noted: The full-length app cDNA was placed in pYeDP1/8-2 under the control of a galactose-inducible yeast promoter; expressed in transfected cells; host or cells: Saccharomyces cerevisiae strain DY transformed with pV8SPA, grown on galactose. The following applies: DY(pV8SPA) cells grown on galactose in the presence of the inhibitor. The protocol:
In situ antigen localization in yeast cells was carried out as described (Harlow and Lane, 1988). For the localization of the APP protein in yeast spheroplasts, anti-APP serum was diluted 1:3,000 to 1:5,000 in Tris-buffered saline-BSA buffer. 10H monoclonal antibody, which specifically recognizes poly(ADP-ribose) polymer (Ikajima et al., 1990) was used in a 1:100 dilution in PBS buffer. The mouse antibody were detected with the sheep anti-mouse IgG F(ab′)2 fragment conjugated to fluorescein isothiocyanate (FITC) (Sigma) at a dilution of 1:200. Rabbit IgG was detected with CY-3 conjugated sheep anti-rabbit IgG sheep F(ab)2 fragment (Sigma), at a dilution of 1:200. For the visualization of DNA, slides were incubated for 1 min in PBS with 10 μg ml^−1 of 4′,6-diamidino-2-phenylindole (DAPI; Sigma). Fluorescence imaging was performed on an Axioskop epifluorescence microscope (Zeiss, Jena, Germany). For observation of FITC and CY-3 fluorochromes, 23 and 15 filter cubes were used, respectively. Cells were photographed with Fuji Color-100 super plus film.
In addition, we tested whether APP was constitutively active in yeast cells, as has been reported for the human PARP (Collinge and Althaus, 1994). […] A positive yellowish-green fluorescence signal with 10H antibody was localized in the nucleus and was observed only in DY(pV8SPA) cells grown on galactose.

The next experiment deals with tobacco. The following applies: Puchta et al., 1995; cited from earlier work.
Experiment [4] addresses T1, APP. Description: Poly(ADP-ribose) polymerase activity assay in total protein extracts of yeast expressing APP.

For the molecule `O=c1[nH]c2ccccc2c2ccccc12` [6(5H)-phenasthridinone], in experiment [1], the “development of tracheary elements” value was “prevent development of tracheary elements”.
Consider `NC(=O)c1cccnc1` [nicotinamide], for which the TTC-reducing capacity entry in experiment [2] was “higher TTC-reducing capacity”. Further, the “positive staining with 10H antibody (poly(ADP-ribose) polymers) in the nucleus” value at APP [3] is on record as “greatly reduced”. Besides, the “development of tracheary elements” value in experiment [1] is reported as “prevent development of tracheary elements”.
For the molecule `NC(=O)c1cccc(N)c1` [3ABA, 3-aminobenzamide], the “positive staining with 10H antibody (poly(ADP-ribose) polymers) in the nucleus” value at APP [3] was “greatly reduced”. For the same molecule, the “rates of homologous intrachromosomal recombination” value with tobacco was “increased”. For the same molecule, the “development of tracheary elements” value in experiment [1] is “prevent development of tracheary elements”. Besides, the “synthesis of poly(ADP-ribose)” value on APP [4] (3ABA 3 mM in the reaction mix, nucleic acid depleted DY(pV8SPA) extract, FIG. 5B lane 5) is “sensitive; also recorded: blocked”. Moreover, at APP [4] (yeast strain grown with 3ABA (3 mM) versus without, 3ABA removed from extracts during desalting, FIG. 5A lane 1 vs 2), the “radioactivity incorporated into polymer” value is “More radioactivity was incorporated into polymer”.

B1: APP: NAP protein of Arabidopsis thaliana (SEQ ID No 6), non-conventional PARP, expressed in yeast (protein, listed as Arabidopsis thaliana)
chain: MANKLKVDELRLKLAERGLSTTGVKAVLVERLEEAIAEDTKKEESKSKRKRNSSNDTYESNKLIAIGEFRGMIVKELREEAIKRGLDTTGTKKDLLERLCNDANNVSNAPVKSSNGTDEAEDDNNGFEEEKKEEKIVTATKKGAAVLDQWIPDEIKSQYHVLQRGDDVYDAILNQTNVRDNNNKFFVLQVLESDSKKTYMVYTRWGRVGVKGQSKLDGPYDSWDRAIEIFTNKFNDKTKNYWSDRKEFIPHPKSYTWLEMDYGKEENDSPVNNDIPSSSSEVKPEQSKLDTRVAKFISLICNVSMMAQHMMEIGYNANKLPLGKISKSTISKGYEVLKRISEVIDRYDRTRLEELSGEFYTVIPHDFGFKKMSQFVIDTPQKLKQKIEMVEALGEIELATKLLSVDPGLQDDPLYYHYQQLNCGLTPVGNDSEEFSMVANYMENTHAKTHSGYTVEIAQLFRASRAVEADRFQQFSSSKNRMLLWHGSRLTNWAGILSQGLRIAPPEAPVTGYMFGKGVYFADMFSKSANYCYANTGANDGVLLLCEVALGDMNELLYSDYNADNLPPGKLSTKGVGKTAPNPSEAQTLEDGVVVPLGKPVERSCSKGMLLYNEYIVYNVEQIKMRYVIQVKFNYKH
B1: in the experiment with APP [4] (sonicated salmon sperm DNA, phosphor-image scanning, FIG. 5B lanes 4 and 2), the “radioactivity incorporated into poly(ADP-ribose), 40 μg/ml DNA versus 2 μg/ml DNA” value was roughly 6 fold.
